Earlier results in patent US9078925B2, “Pharmaceutical semi-solid composition of isotretinoin” (GALEPHAR PHARMACEUTICAL RESEARCH, INC., priority 2012, dated 2015).
Like-named read-outs stand apart in the source and are kept apart here.

Tests used:
[1] = not given; remark: listed apart in the source

For `CC1=C(/C=C/C(C)=C/C=C/C(C)=C\C(=O)O)C(C)(C)CCC1` [Isotretinoin, 13-cis retinoic acid], the solubility in water is given as “poorly soluble in water”, the “bioavailability after an oral intake” value ([1]; fasted conditions) is given as 25% and the “bioavailability after an oral intake” value ([1]; fed conditions) is given as 40%. The “time to reach steady-state concentrations” value ([1]; of treatment) was 1 week.
